Activity calls are given as the source filed them. No cut-off for these calls is given here.
Assays:
[1] = Inhibition of RSL3 induced ferroptosis in H9c2 cells assessed as cell viability incubated for 24 hrs by CellTiter-LumiTM assay; type: functional, cell-based; conditions: Rattus norvegicus, H9c2, 24 h
[2] = Microsomal stability in rat liver microsomes assessed as half life at 0.1 uM by LC-MS/MS analysis; type: ADME, Microsome; conditions: liver microsomes
786-0 [3] = experiment: Effect on TFRC expression in human 786-0 cells in presence of 0.25 uM RSL3 at 1 uM incubated for 2.5 hrs by Western blot analysis; type: functional, cell-based
[4] = Metabolic stability in human plasma assessed as half life at 1 uM by LC-MS/MS analysis; type: ADME, cell-free
[5] = Metal chelating activity assessed as Fe2+ chelation assessed as absorbance peak at 430 nm by UV-vis spectroscopy; conditions: dose 1.0 µM
Mus musculus [6] = experiment: Anti-ferroptotic activity in ConA-induced C57 mouse liver injury model assessed as reduction in AST levels in serum at 10 mg/kg, ip pre-treated 1 day followed by challenged with ConA measured after 24 hrs; type: functional, organism-based
[7] = Inhibition of erastin induced ferroptosis in human 786-0 cells assessed as cell viability incubated for 24 hrs by CellTiter-LumiTM assay; type: functional, cell-based; conditions: 786-0, 24 h
[8] = Microsomal stability in rat liver microsomes assessed as hepatic extraction ratio at 0.1 uM by LC-MS/MS analysis; type: ADME, Microsome; conditions: read-out: ERH
786-0 [9] = experiment: Inhibition of H2O2 induced necrosis in human 786-0 cells assessed as cell viability at 1 uM incubated for 24 hrs by CellTiter-LumiTM assay; type: functional, cell-based
786-0 [10] = experiment: Inhibition of STS induced apoptosis in human 786-0 cells assessed as cell viability at 1 uM incubated for 24 hrs by CellTiter-LumiTM assay; type: functional, cell-based
[11] = Microsomal stability in human liver microsomes assessed as half life at 0.1 uM by LC-MS/MS analysis; type: ADME, Microsome; conditions: liver microsomes
Mus musculus [12] = experiment: Anti-ferroptotic activity in ConA-induced C57 mouse liver injury model assessed as reduction in ALT levels in serum at 10 mg/kg, ip pre-treated 1 day followed by treated with ConA measured after 24 hrs; type: functional, organism-based; conditions: time 2.0 day
[13] = Microsomal stability in rat liver microsomes assessed as hepatic clearance at 0.1 uM by LC-MS/MS analysis; type: ADME, Microsome
786-0 [14] = experiment: Inhibition of RSL3 induced ferroptosis in human 786-0 cells assessed as cell viability in presence of iFSP1 at 1 uM measured after 24 hrs by CellTiter-LumiTM assay; type: functional, cell-based
HT-1080 = experiment: Anti-ferroptotic activity in human GPX4 knockout HT-1080 cells assessed as cell viability at 1 uM incubated for 24 hrs by CellTiter-LumiTM plus luminescent cell viability assay; type: functional, cell-based
[15] = Microsomal stability in human liver microsomes assessed as hepatic extraction ratio at 0.1 uM by LC-MS/MS analysis; type: ADME, Microsome; conditions: read-out: ERH
786-0 [16] = experiment: Cytotoxicity against human 786-0 cells assessed as cell viability incubated for 24 hrs by CellTiter-LumiTM assay; type: functional
[17] = Inhibition of RSL3 induced ferroptosis in human HT-1080 cells assessed as cell viability incubated for 24 hrs by CellTiter-LumiTM assay; type: functional, cell-based; conditions: HT-1080, 24 h
786-0 [18] = experiment: Effect on FTL expression in human 786-0 cells at 1 uM incubated for 2.5 hrs by western blot analysis; type: functional, cell-based
[19] = Inhibition of RSL3 induced ferroptosis in human MHCC97H cells assessed as cell viability incubated for 24 hrs by CellTiter-LumiTM assay; type: functional, cell-based
786-0 [20] = experiment: Effect on FTH1 expression in human 786-0 cells at 1 uM incubated for 2.5 hrs by western blot analysis; type: functional, cell-based
Mus musculus [21] = experiment: Anti-ferroptotic activity in ConA-induced C57 mouse acute liver injury model assessed as assessed as reduction in 4-HNE accumulation in liver tissue at 10 mg/kg, ip pre-administered one day followed by treated with ConA measured after 24 hrs by 4-HNE staining based analysis; type: functional, organism-based; conditions: time 48.0 hrs
786-0 [22] = experiment: Effect on IRP1 expression in human 786-0 cells at 1 uM incubated for 2.5 hrs by western blot analysis; type: functional, cell-based
786-0 [23] = experiment: Effect on SLC7A11 expression in human 786-0 cells at 1 uM incubated for 2.5 hrs by Western blot analysis; type: functional, cell-based
786-0 [24] = experiment: Metal chelating activity assessed as Fe2+ chelation in human 786-0 cells assessed as intracellular ferrous ion level at 1 uM by FerroOrange fluorescent probe based assay; type: cell-based
786-0 [25] = experiment: Inhibition of RSL3-induced ferroptosis in human 786-0 cells assessed as cell viability by assessing cell morphology incubated for 24 hrs by CellTiter-LumiTM plus luminescent cell viability assay; type: functional, cell-based; conditions: 786-0, 24 h
SK-HEP1 [26] = experiment: Inhibition of RSL3 induced lipid-ROS accumulation in human SK-HEP1 cells at 1 uM incubated for 0.5 hrs by C11-BODIPY 581/591 staining coupled with flow cytometry analysis; type: functional, cell-based
SK-HEP1 [27] = experiment: Inhibition of RSL3 induced lipid-ROS accumulation in human SK-HEP1 cells at 1 uM incubated for 2.5 hrs by C11-BODIPY 581/591 staining coupled with flow cytometry analysis; type: functional, cell-based
786-0 [28] = experiment: Effect on FTH1 expression in human 786-0 cells in presence of 0.25 uM RSL3 at 1 uM incubated for 2.5 hrs by Western blot analysis; type: functional, cell-based
786-0 [29] = experiment: Inhibition of RSL3 induced lipid-ROS accumulation in human 786-0 cells assessed as fast elimination at 1 uM measured after 0.25 to 2.5 hrs by C11-BODIPY 581/591 staining coupled with flow cytometry analysis; type: functional, cell-based; conditions: time 0.25-2.5 hrs
786-0 [30] = experiment: Effect on erastin-induced decrease in GSH level in human 786-0 cells at 1 uM incubated for 10 hrs by Total intracellular GSH assay; type: functional, cell-based
786-0 [31] = experiment: Effect on ACSL4 expression in human 786-0 cells at 1 uM incubated for 2.5 hrs by Western blot analysis; type: functional, cell-based
[32] = Suppression of autoxidation of liposomes egg ( unknown origin) phosphatidylcholine lipids as substrate at 0.1 to 2.5 uM incubated for 5 min by C11-BODIPY 581/591 dye based fluorescent assay; type: functional; conditions: dose 0.1-2.5 µM
[33] = Inhibition of RSL3 induced ferroptosis in human SK-HEP1 cells assessed as cell viability incubated for 24 hrs by CellTiter-LumiTM assay; type: functional, cell-based; conditions: SK-HEP1, 24 h
Mus musculus [34] = experiment: Anti-ferroptotic activity in ConA-induced C57 mouse acute liver injury model assessed as reduction in malondialdehyde levels at 10 mg/kg, ip pre-administered one day followed by treated with ConA measured after 24 hrs by MDA kit assay; type: functional, organism-based; conditions: time 48.0 hrs
[35] = Antioxidant activity assessed as free radical scavenging activity incubated for 30 mins in dark by DPPH assay relative to control; type: functional
786-0 [36] = experiment: Effect on GPX4 expression in human 786-0 cells at 1 uM incubated for 2.5 hrs by Western blot analysis; type: functional, cell-based
786-0 [37] = experiment: Inhibition of RSL3-induced ferroptosis in human 786-0 cells assessed as cell protection by assessing cell morphology at 1 uM incubated for 24 hrs; type: functional, cell-based
786-0 [38] = experiment: Inhibition of RSL3 induced lipid-ROS accumulation in human 786-0 cells incubated for 2.5 hrs by C11-BODIPY 581/591 staining coupled with flow cytometry analysis; type: functional, cell-based; conditions: dose 0.1-1 µM
786-0 [39] = experiment: Inhibition of RSL3-induced ferroptosis in human 786-0 cells assessed as cell viability incubated for 24 hrs by CellTiter-LumiTM assay; type: functional, cell-based; conditions: 786-0, 24 h
Mus musculus [40] = experiment: Anti-ferroptotic activity in ConA-induced C57 mouse acute liver injury model assessed as assessed as reduction in PTGS2 mRNA levels in liver tissue at 10 mg/kg, ip pre-administered one day followed by treated with ConA measured after 24 hrs by qRT-PCR analysis; type: functional, organism-based; conditions: time 48.0 hrs
786-0 [41] = experiment: Effect on IRP1 expression in human 786-0 cells in presence of 0.25 uM RSL3 at 1 uM incubated for 2.5 hrs by Western blot analysis; type: functional, cell-based
Mus musculus [42] = experiment: Anti-ferroptotic activity in ConA-induced C57 mouse liver injury model assessed as decrease in acute liver injury at 10 mg/kg, ip pre-administered one day followed by treated with ConA measured after 24 hrs by HE staining based analysis; type: functional, organism-based; conditions: time 48.0 hrs
786-0 [43] = experiment: Effect on TFRC expression in human 786-0 cells at 1 uM incubated for 2.5 hrs by Western blot analysis; type: functional, cell-based
[44] = Microsomal stability in human liver microsomes assessed as hepatic clearance at 0.1 uM by LC-MS/MS analysis; type: ADME, Microsome
786-0 [45] = experiment: Effect on FTL expression in human 786-0 cells in presence of 0.25 uM RSL3 at 1 uM incubated for 2.5 hrs by Western blot analysis; type: functional, cell-based
[46] = Metabolic stability in rat plasma assessed as half life at 1 uM by LC-MS/MS analysis; type: ADME, cell-free

COc1cccc(C2N(c3ccccc3)N=C(C(C)=O)N2c2ccc(N(C)C)cc2)c1OCc1ccc(F)c(F)c1 (configuration not stated)
EC50 [1]: 122 nM
half-life at 0.1 µM [2]: 2.87 min
Activity (786-0 [3]): inactive
half-life at 1 µM [4]: 33.7 h
Activity [5]: inactive
Activity (Mus musculus [6]): Active
EC50 [7]: 44 nM
hepatic extraction ratio at 0.1 µM [8]: 0.987
inhibition (786-0 [9]): inactive
inhibition (786-0 [10]): inactive
half-life at 0.1 µM [11]: 5.74 min
Activity (Mus musculus [12]): Active
CLhep predicted at 0.1 µM [13]: 54.5 mL/min/kg
inhibition (786-0 [14]): Active
Activity (HT-1080): Active
hepatic extraction ratio at 0.1 µM [15]: 0.986
CC50 (786-0 [16]): > 40000 nM
EC50 [17]: 186 nM
Activity (786-0 [18]): No effect
EC50 [19]: 288 nM
Activity (786-0 [20]): No effect
Activity (Mus musculus [21]): Active
Activity (786-0 [22]): No effect
Activity (786-0 [23]): No effect
Activity (786-0 [24]): inactive
EC50 (786-0 [25]): 62 nM
inhibition (SK-HEP1 [26]): Active
inhibition (SK-HEP1 [27]): Active
Activity (786-0 [28]): inactive
inhibition (786-0 [29]): Active; Eliminated As Fast As Fer-1
Activity (786-0 [30]): inactive
Activity (786-0 [31]): No effect
Activity [32]: Dose-dependent-effect
EC50 [33]: 134 nM
Activity (Mus musculus [34]): Active
Activity [35]: Active
Activity (786-0 [36]): No effect
Activity (786-0 [37]): Active
inhibition (786-0 [38]): Dose-dependent-effect
EC50 (786-0 [39]): 60 nM
Activity (Mus musculus [40]): Active
Activity (786-0 [41]): inactive
Activity (Mus musculus [42]): Active
Activity (786-0 [43]): No effect
CLhep predicted at 0.1 µM [44]: 20.4 mL/min/kg
Activity (786-0 [45]): inactive
half-life at 1 µM [46]: 6.58 h
